# Key:
# [1] = molecular target: T1, mTOR kinase (Homo sapiens, UniProt P42345); experiment: mTOR kinase TR-FRET assay; assay type: biochemical
# T1 construct: purchased Millipore, US
# In short: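 TR-FRET with ULight-p70 S6K (Thr 389) peptide (50 nM) and 20 μM ATP in 50 mM HEPES pH 7.5, 1 mM EGTA, 3 mM MnCl2; compound pre-incubated with enzyme before substrate addition, reaction at rt, EDTA-stopped. Eu anti-phospho antibody read 665/615 nm; IC50 from sigmoidal dose-response fit.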
# [2] = molecular target: T2, B-RAFV600E (Homo sapiens, UniProt P15056, V600E); experiment: B-RAFV600E radiometric assay; assay type: biochemical; details: read-out: Kinase assay B-Raf
# T2 construct: purchased Millipore, USA 14-557
# T2 sequence (P15056 416-766 V600E limits assumed): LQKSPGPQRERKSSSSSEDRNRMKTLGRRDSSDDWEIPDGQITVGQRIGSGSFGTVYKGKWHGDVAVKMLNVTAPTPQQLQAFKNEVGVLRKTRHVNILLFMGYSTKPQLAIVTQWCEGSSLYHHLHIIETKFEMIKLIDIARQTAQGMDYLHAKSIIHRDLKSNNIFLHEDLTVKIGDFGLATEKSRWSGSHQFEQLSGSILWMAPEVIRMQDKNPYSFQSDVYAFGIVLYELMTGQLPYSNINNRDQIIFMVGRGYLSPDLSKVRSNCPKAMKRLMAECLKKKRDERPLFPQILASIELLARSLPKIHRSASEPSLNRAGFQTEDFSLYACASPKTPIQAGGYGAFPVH
# In short: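 B-RAFV600E was preincubated 45 min at rt with compound in 1% DMSO. MEK-K97M (0.5 μg), 5 μM final cold ATP and [γ-32P]ATP were then added for 2 h at rt. Phosphorylated MEK was captured on P81 paper and scintillation-counted; IC50 came from a sigmoidal dose-response fit.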
# [3] = tested on: A375 cells; experiment: XTT assay for cell viability, A375 cells; assay type: cell-based; details: Homo sapiens, A-375, 72 h
# Protocol: Cell lines (A375 ATCC No. CRL-1619, A2058 ATCC No. CRL-11147 and RKO ATCC No. CRL-2577, American Type Culture Collection (ATCC), Manassas Va.) once attaining ˜80% confluency were trypsinized, centrifuged and resuspended in fresh media. Cells (1000-2000/per well) were seeded in 96-well plate and incubated over-night at 37° C. in a 5% CO2 incubator. Compound dilutions were prepared in 100% DMSO followed by dilutions in the respective media. The cells were treated with NCEs for 72 h at 37° C. in 5% CO2 incubator. After 72 h, freshly prepared XTT (1 mg/ml)/PMS (25 μM) solution was added, incubated for 2 to 3 h at 37° C. and the absorbance was measured at 450 nm using an ELISA plate reader. Keeping DMSO control as 100%, the effect of the compound to inhibit the cell proliferation was calculated and the GI50 values were determined using sigmoidal dose response curve fit in GraphPad Prism® v5 software.
# [4] = tested on: pERK in A375 cells; experiment: In Cell Western (ICW) assay, pERK in A375 cells; assay type: cell-based; details: Homo sapiens, A-375, 3 h treatment
# Protocol: Cell lines A375, A2058 and RKO obtained from the ATCC as provided above, were grown, and after attaining ˜80% confluency were trypsinized, centrifuged and resuspended in fresh media. The cells were seeded at the specified density (20,000 to 50,000) in a 96-well format black-well clear bottom plate (Corning) and incubated overnight at 37° C. in a 5% CO2 incubator. The next day, compound dilutions of test compounds were prepared in 100% DMSO followed by dilutions in respective media. Treatment of test compounds was performed for 3 h at 37° C. in 5% CO2 incubator. Following 3 h drug treatment, the conditional media was discarded and the cells were washed once with cPBS (PBS containing 0.1% magnesium chloride hexahydrate and 0.1% anhydrous calcium chloride) and fixed with 4% paraformaldehyde in cPBS for 1 h at rt. After fixing, the cells were given three washes using cPBST (cPBS containing 0.1% Triton™ X-100 reagent) and then blocked using blocking solution (5% skimmed milk powder or 5% BSA prepared in cPBST) for 2 h at rt with shaking at 300 rpm. The cells were again washed thrice with cPBST and incubated with primary antibody phospho-p44/42 MAPK(Erk1/2)(Thr202/204) antibody (Cell Signaling, Catalog # 9101L), phospho S6 ribosomal protein (Cell Signaling, Catalog #4858L), phospho AKT (Thr 308) (Cell Signaling, Catalog #9275) or phospho AKT (Ser 473) (Cell Signaling, Catalog #4060L) in specified dilutions (1:500-1:2500), prepared in respective blocking solutions, in a racker overnight at 4° C. The next day, the cells were washed with 1× Delfia® wash buffer (4×1 wash) and incubated with secondary antibody (Delfia®-Eu-N1 labeled anti-rabbit antibody; PerkinElmer, Catalog #AD0105; dilutions: 1:2000 to 1:6000 in Delfia® assay buffer (PerkinElmer, Catalog #1244-111)) for 2 h at rt in the dark at 300 rpm. The cells were then given four washes with 1× Delfia® wash buffer and incubated with Wallac Delfia® Enhancement solution (100 μL; PerkinElmer, Catalog #1244-105) for 20 min at rt in the dark at 300 rpm. The fluorescence emission was then read at 615 nm with an excitation wavelength of 340 nm using a Victor V5 Fluorometer (Perkin Elmer, US). The cells were then washed once with 1×cPBS and incubated with 100 μL of 0.5 mg/mL of Hoechst 33258 dye prepared in cPBS and read at 460 nm with 355 nm excitation, thereby evaluating the correction factor.
# The % inhibition for the test compounds of formula (I) (new chemical entities (NCEs)) was calculated keeping DMSO control as 0% and the IC50 values were determined using sigmoidal dose response curve fit in GraphPad Prism® v5 software.
# T1 sequence (P42345 1362-2549 limits assumed): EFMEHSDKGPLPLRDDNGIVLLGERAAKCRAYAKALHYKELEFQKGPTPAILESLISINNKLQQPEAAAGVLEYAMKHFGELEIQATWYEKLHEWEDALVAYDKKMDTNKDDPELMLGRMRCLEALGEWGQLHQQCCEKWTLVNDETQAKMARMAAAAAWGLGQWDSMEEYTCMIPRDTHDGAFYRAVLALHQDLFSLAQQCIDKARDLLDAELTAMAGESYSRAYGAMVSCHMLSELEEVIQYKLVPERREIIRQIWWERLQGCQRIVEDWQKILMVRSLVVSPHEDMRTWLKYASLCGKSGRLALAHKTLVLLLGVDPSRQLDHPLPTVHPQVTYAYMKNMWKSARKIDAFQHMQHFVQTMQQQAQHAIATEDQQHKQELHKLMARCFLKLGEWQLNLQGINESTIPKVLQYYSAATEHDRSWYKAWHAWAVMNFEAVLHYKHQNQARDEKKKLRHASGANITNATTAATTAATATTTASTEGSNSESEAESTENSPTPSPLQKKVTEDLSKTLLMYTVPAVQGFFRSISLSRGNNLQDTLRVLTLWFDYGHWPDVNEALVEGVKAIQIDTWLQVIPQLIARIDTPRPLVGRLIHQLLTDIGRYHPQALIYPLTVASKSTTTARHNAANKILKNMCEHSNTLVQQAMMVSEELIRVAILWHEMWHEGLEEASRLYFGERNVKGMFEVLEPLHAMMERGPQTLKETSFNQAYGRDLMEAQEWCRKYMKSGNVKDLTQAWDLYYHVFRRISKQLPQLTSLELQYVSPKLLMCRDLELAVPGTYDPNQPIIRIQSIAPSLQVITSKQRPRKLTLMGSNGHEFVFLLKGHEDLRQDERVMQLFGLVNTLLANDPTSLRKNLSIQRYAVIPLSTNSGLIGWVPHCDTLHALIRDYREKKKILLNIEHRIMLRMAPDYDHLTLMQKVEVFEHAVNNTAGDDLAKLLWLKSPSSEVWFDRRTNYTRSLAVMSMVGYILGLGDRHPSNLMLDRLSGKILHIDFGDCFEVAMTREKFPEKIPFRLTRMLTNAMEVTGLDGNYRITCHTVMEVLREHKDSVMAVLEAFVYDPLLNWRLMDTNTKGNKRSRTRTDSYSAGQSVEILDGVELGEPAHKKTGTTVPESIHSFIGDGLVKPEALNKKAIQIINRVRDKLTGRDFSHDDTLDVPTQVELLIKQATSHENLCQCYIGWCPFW
Structure (SMILES),IC50 [1] [nM],IC50 [2] [nM],IC50 [3] [nM],IC50 [4] [nM]
"COc1cc(-c2c(F)ccc(NS(=O)(=O)c3c(F)cccc3F)c2F)cc2c(N3CCOCC3)nc(-c3cnc(N)nc3)nc12 [Example 76, N-(3-(2-(2-aminopyrimidin-5-yl)-8-methoxy-4-morpholinoquinazolin-6-yl)-2,4-difluorophenyl)-2,6-difluorobenzenesulfonamide]",100 to 1000,1 to 100,100 to 1000,100 to 1000
"COc1cc(-c2c(F)ccc(NS(=O)(=O)c3c(F)cccc3F)c2F)cc2c(N3CCOCC3)nc(-c3ccc(N)nc3)nc12 [Example 77, N-(3-(2-(6-aminopyridin-3-yl)-8-methoxy-4-morpholinoquinazolin-6-yl)-2,4-difluorophenyl)-2,6-difluorobenzenesulfonamide]",100 to 1000,1 to 100,100 to 1000,100 to 1000
"COc1cc(-c2cccc(NS(=O)(=O)c3cc(F)ccc3F)c2F)cc2c(N3CCOCC3)nc(-c3cnc(N)nc3)nc12 [Example 22, N-(3-(2-(2-aminopyrimidin-5-yl)-8-methoxy-4-morpholinoquinazolin-6-yl)-2-fluorophenyl)-2,5-difluorobenzenesulfonamide]",100 to 1000,1 to 100,100 to 1000,1 to 100
"CCS(=O)(=O)Nc1cccc(-c2cc(OC)c3nc(-c4cnc(N)nc4)nc(N4CCOCC4)c3c2)c1F [Example 21, N-(3-(2-(2-aminopyrimidin-5-yl)-8-methoxy-4-morpholinoquinazolin-6-yl)-2-fluorophenyl) \ethanesulfonamide]",100 to 1000,100 to 1000,1000 to 10000,100 to 1000
"COc1cc(-c2cccc(NS(=O)(=O)CC(C)C)c2F)cc2c(N3CCOCC3)nc(-c3cnc(N)nc3)nc12 [Example 20, N-(3-(2-(2-aminopyrimidin-5-yl)-8-methoxy-4-morpholinoquinazolin-6-yl)-2-fluorophenyl)-2-methylpropane-1-sulfonamide]",100 to 1000,1 to 100,100 to 1000,100 to 1000
"COc1cc(-c2cccc(NS(=O)(=O)c3cc(F)ccc3F)c2F)cc2c(N3CCOCC3)nc(-c3ccc(N)nc3)nc12 [Example 28, N-(3-(2-(6-aminopyridin-3-yl)-8-methoxy-4-morpholinoquinazolin-6-yl)-2-fluorophenyl)-2,5-difluorobenzenesulfonamide]",100 to 1000,1 to 100,100 to 1000,1 to 100
"COc1cc(-c2cccc(NS(=O)(=O)C(C)C)c2F)cc2c(N3CCOCC3)nc(-c3ccc(N)nc3)nc12 [Example 33, N-(3-(2-(6-aminopyridin-3-yl)-8-methoxy-4-morpholinoquinazolin-6-yl)-2-fluorophenyl)propane-2-sulfonamide]",100 to 1000,100 to 1000,100 to 1000,100 to 1000
"CCCS(=O)(=O)Nc1cccc(-c2cc(OC)c3nc(-c4cnc(N)nc4)nc(N4CCOCC4)c3c2)c1F [Example 15, N-(3-(2-(2-aminopyrimidin-5-yl)-8-methoxy-4-morpholinoquinazolin-6-yl)-2-fluorophenyl)propane-1-sulfonamide]",100 to 1000,100 to 1000,100 to 1000,100 to 1000

# The next lines start with the values.
IC50 [1] [nM],IC50 [2] [nM],IC50 [3] [nM],IC50 [4] [nM],Structure (SMILES)
100 to 1000,1 to 100,100 to 1000,1 to 100,"COc1cc(-c2c(F)ccc(NS(=O)(=O)c3cc(F)ccc3F)c2F)cc2c(N3CCOCC3)nc(-c3ccc(N)nc3)nc12 [Example 78, N-(3-(2-(6-aminopyridin-3-yl)-8-methoxy-4-morpholinoquinazolin-6-yl)-2,4-difluorophenyl)-2,5-difluorobenzenesulfonamide]"
100 to 1000,1 to 100,100 to 1000,100 to 1000,"COc1cc(-c2cccc(NS(=O)(=O)c3c(F)cccc3F)c2F)cc2c(N3CCOCC3)nc(-c3ccc(N)nc3)nc12 [Example 19, N-(3-(2-(6-aminopyridin-3-yl)-8-methoxy-4-morpholinoquinazoIin-6-yl)-2-fluorophenyl)-2,6-difluorobenzenesulfonamide]"
1 to 100,1 to 100,100 to 1000,100 to 1000,"CCCS(=O)(=O)Nc1ccc(F)c(-c2cc(OC)c3nc(-c4cnc(N)nc4)nc(N4CCOCC4)c3c2)c1F [Example 6, N-(3-(2-(2-aminopyrimidin-5-yl)-8-methoxy-4-morpholinoquinazolin-6-yl)-2,4-difluorophenyl)propane-1-sulfonamide]"
100 to 1000,100 to 1000,100 to 1000,100 to 1000,"COc1cc(-c2cccc(NS(=O)(=O)CCCF)c2F)cc2c(N3CCOC[C@@H]3C)nc(-c3cnc(N)nc3)nc12 [Example 45, (S)-N-(3-(2-(2-aminopyrimidin-5-yl)-8-methoxy-4-(3-methylmorpholino)quinazolin-6-yl)-2-fluorophenyl)-3-fluoropropane-1-sulfonamide]"
100 to 1000,1 to 100,100 to 1000,1 to 100,"CCOc1cc(-c2cccc(NS(=O)(=O)CCCF)c2F)cc2c(N3CCOCC3)nc(-c3cnc(N)nc3)nc12 [Example 54, N-(3-(2-(2-aminopyrimidin-5-yl)-8-ethoxy-4-morpholinoquinazolin-6-yl)-2-fluorophenyl)-3-fluoropropane-1-sulfonamide]"
1 to 100,1 to 100,1000 to 10000,1000 to 10000,"NC(=O)COc1cc(-c2cccc(NS(=O)(=O)CCCF)c2F)cc2c(N3CCOCC3)nc(-c3ccc(N)nc3)nc12 [Example 60, 2-((2-(6-aminopyridin-3-yl)-6-(2-fluoro-3-(3-fluoropropylsulfonamido)phenyl)-4-morpholino-quinazolin-8-yl)oxy)acetamide]"
1 to 100,100 to 1000,100 to 1000,100 to 1000,"CCCS(=O)(=O)Nc1cccc(-c2cc(OC)c3nc(-c4ccc(NC(=O)NC)cc4)nc(N4CCOCC4)c3c2)c1F [Example 14, N-(2-fluoro-3-(8-methoxy-2-(4-(3-methylureido)phenyl)-4-morpholinoquinazolin-6-yl)phenyl)propane-1-sulfonamide]"
1 to 100,100 to 1000,100 to 1000,1 to 100,"Nc1ncc(-c2nc(N3CCOCC3)c3cc(-c4cccc(NS(=O)(=O)CCCF)c4F)cc(N4CCCC4)c3n2)cn1 [Example 71, N-(3-(2-(2-aminopyrimidin-5-yl)-4-morphollno-8-(pyrrolidin-1-yl)quinazolin-6-yl)-2-fluorophenyl)-3-fluoropropane-1-sulfonamide]"
1 to 100,1 to 100,100 to 1000,1 to 100,"COc1cc(-c2cccc(NS(=O)(=O)CCCF)c2F)cc2c(N3CCOC[C@@H]3C)nc(-c3ccc(N)nc3)nc12 [Example 41, (S)-N-(3-(2-(6-aminopyridin-3-yl)-8-methoxy-4-(3-methylmorpholino)quinazolin-6-yl)-2-fluorophenyl)-3-fluoropropane-1-sulfonamide]"

# Reference: patent publication US9499495B2, “Quinazolines and azaquinazolines as dual inhibitors of RAS/RAF/MEK/ERK and PI3K/AKT/PTEN/mTOR pathways” (Asana Biosciences, LLC, priority 2013, dated 2016)
